Key:
Assay type in all cases: in vivo
[1] = system: Alopecurus myosuroides (ALOMY); experiment: Comparative testing, glasshouse herbicide test, spray one day after sowing
Experimental: (§1) Seeds of a variety of test species are sown in standard soil in pots. After cultivation for one day under controlled conditions in a glasshouse (at 24/16° C., day/night; 14 hours light; 65% humidity), an aqueous spray solution derived from the formulation of the technical active ingredient in 0.6 ml acetone and 45 ml formulation solution containing 10.6% Emulsogen EL (Registry number 61791-12-6), 42.2% N-methyl pyrrolidone, 42.2% dipropylene glycol monomethyl ether (CAS RN 34590-94-8) and 0.2% X-77 (CAS RN 11097-66-8) is applied.
(§2) The test plants are then grown in a glasshouse under controlled conditions in a glasshouse (at 24/16° C., day/night; 14 hours light; 65% humidity) and watered twice daily. After 21 days, the test is evaluated (100=total damage to plant; 0=no damage to plant). Test plants (weed species) include: Alopecurus myosuroides (ALOMY), Bidens pilosa (BIDPI), Euphorbia heterophylla (EPHHL), Lolium perenne (LOLPE), Panicum milaceum (PANMI), Sida spinosa (SIDSP) and Stellaria media STEME).

Bidens pilosa (BIDPI) = experiment: as above
Experimental: as §1, §2

[2] = system: Euphorbia heterophylla (EPHHL); experiment: as above
Experimental: as §1, §2

Lolium perenne (LOLPE) [3] = experiment: as above
Experimental: as §1, §2

Panicum milaceum (PANMI) = experiment: as above
Experimental: as §1, §2

Sida spinosa (SIDSP) = experiment: as above
Experimental: as §1, §2

Stellaria media (STEME) = experiment: as above
Experimental: as §1, §2

[4] = system: Amaranthus retoflexus (AMARE); experiment: Further testing, post-emergence application; conditions: 1000 g/h, after 13 days
Experimental: (§3) Seeds of a variety of test species are sown in standard soil in pots (Lolium perenne (LOLPE), Solanum nigrum (SOLNI), Amaranthus retoflexus (AMARE), Setaria faberi (SETFA), Echinochloa crus-galli (ECHCG), Ipomoea hederacea (IPOHE)). After cultivation for one day (pre-emergence) or after 8 days cultivation (post-emergence) under controlled conditions in a glasshouse (at 24/16° C., day/night; 14 hours light; 65% humidity), the plants are sprayed with an aqueous spray solution derived from the formulation of the technical active ingredient in acetone/water (50:50) solution containing 0.5% Tween 20 (polyoxyethelyene sorbitan monolaurate, CAS RN 9005-64-5). Compounds are applied at 1000 g/h unless otherwise stated. The test plants are then grown in a glasshouse under controlled conditions in a glasshouse (at 24/16° C., day/night; 14 hours light; 65% humidity) and watered twice daily. After 13 days for pre and post-emergence, the test is evaluated for the percentage damage caused to the plant. The biological activities are shown in the following table on a five point scale (5=80-100%; 4=60-79%; 3=40-59%; 2=20-39%; 1=0-19%).

[5] = system: Echinochloa crus-galli (ECHCG); experiment: Further testing, post-emergence application; conditions: 1000 g/h, after 13 days
Experimental: as §3

[6] = system: Ipomoea hederacea (IPOHE); experiment: Further testing, post-emergence application; conditions: 1000 g/h, after 13 days
Experimental: as §3

Lolium perenne (LOLPE) [7] = experiment: Further testing, post-emergence application; conditions: 1000 g/h, after 13 days
Experimental: as §3

Setaria faberi (SETFA) [8] = experiment: Further testing, post-emergence application; conditions: 1000 g/h, after 13 days
Experimental: as §3

Solanum nigrum (SOLNI) [9] = experiment: Further testing, post-emergence application; conditions: 1000 g/h, after 13 days
Experimental: as §3

[10] = system: Amaranthus retoflexus (AMARE); experiment: Further testing, pre-emergence application; conditions: 1000 g/h, after 13 days
Experimental: as §3

[11] = system: Echinochloa crus-galli (ECHCG); experiment: Further testing, pre-emergence application; conditions: 1000 g/h, after 13 days
Experimental: as §3

[12] = system: Ipomoea hederacea (IPOHE); experiment: Further testing, pre-emergence application; conditions: 1000 g/h, after 13 days
Experimental: as §3

Lolium perenne (LOLPE) [13] = experiment: Further testing, pre-emergence application; conditions: 1000 g/h, after 13 days
Experimental: as §3

Setaria faberi (SETFA) [14] = experiment: Further testing, pre-emergence application; conditions: 1000 g/h, after 13 days
Experimental: as §3

Solanum nigrum (SOLNI) [15] = experiment: Further testing, pre-emergence application; conditions: 1000 g/h, after 13 days
Experimental: as §3

[16] = Rate 125, evaluated after 21 days
[17] = Rate 250, evaluated after 21 days

With `Cn1nnnc1NC(=O)c1nn(C)c(=O)c(C2CCCCC2)c1Cl` [Compound 1.001] the “damage to plant (100=total damage to plant; 0=no damage to plant)” value [1, 16] was 40, the “damage to plant (100=total damage to plant; 0=no damage to plant)” value [1, 17] was 40 and the “damage to plant (100=total damage to plant; 0=no damage to plant)” value (Bidens pilosa (BIDPI); [16]) was 100. The “damage to plant (100=total damage to plant; 0=no damage to plant)” value (Bidens pilosa (BIDPI); [17]) was 100, the “damage to plant (100=total damage to plant; 0=no damage to plant)” value [2, 16] was 90 and the “damage to plant (100=total damage to plant; 0=no damage to plant)” value [2, 17] was 90. The “damage to plant (100=total damage to plant; 0=no damage to plant)” value (Lolium perenne (LOLPE) [3]; [16]) was 60, the “damage to plant (100=total damage to plant; 0=no damage to plant)” value (Lolium perenne (LOLPE) [3]; [17]) was 60 and the “damage to plant (100=total damage to plant; 0=no damage to plant)” value (Panicum milaceum (PANMI); [16]) was 80. The “damage to plant (100=total damage to plant; 0=no damage to plant)” value (Panicum milaceum (PANMI); [17]) was 80, the “damage to plant (100=total damage to plant; 0=no damage to plant)” value (Sida spinosa (SIDSP); [16]) was 90 and the “damage to plant (100=total damage to plant; 0=no damage to plant)” value (Sida spinosa (SIDSP); [17]) was 90. For the same compound, the “damage to plant (100=total damage to plant; 0=no damage to plant)” value (Stellaria media (STEME); [16]) was 100, the “damage to plant (100=total damage to plant; 0=no damage to plant)” value (Stellaria media (STEME); [17]) was 100 and the “percentage damage caused to the plant, five point scale” value (“percentage damage caused to the plant” for short) [4] was 5 (5=80-100%). For the same compound, the “percentage damage caused to the plant” value [5] was 5 (5=80-100%), the “percentage damage caused to the plant” value [6] was 5 (5=80-100%) and the “percentage damage caused to the plant” value (Lolium perenne (LOLPE) [7]) was 5 (5=80-100%). For the same compound, the “percentage damage caused to the plant” value (Setaria faberi (SETFA) [8]) was 5 (5=80-100%), the “percentage damage caused to the plant” value (Solanum nigrum (SOLNI) [9]) was 5 (5=80-100%) and the “percentage damage caused to the plant” value [10] was 5 (5=80-100%). The “percentage damage caused to the plant” value [11] was 5 (5=80-100%), the “percentage damage caused to the plant” value [12] was 5 (5=80-100%) and the “percentage damage caused to the plant” value (Lolium perenne (LOLPE) [13]) was 5 (5=80-100%). For the same compound, the “percentage damage caused to the plant” value (Setaria faberi (SETFA) [14]) was 5 (5=80-100%) and the “percentage damage caused to the plant” value (Solanum nigrum (SOLNI) [15]) was 5 (5=80-100%).
